Source: patent US20250268878A1, “FERROPORTIN-INHIBITORS FOR THE USE IN THE TREATMENT OF MYELODYSPLASTIC SYNDROMES (MDS)” (Vifor (International) AG, priority 2021, published 2025)
Entries after “also recorded” stand apart in the source; their conditions may differ.

Assays:
NUP98-HOXD13 MDS mice [1] = assay: NUP98-HOXD13 MDS mouse model, rescuing effect (treatment from 5 months of age); assay type: in vivo; details: for Leukemia development / Anemia after 5 months of treatment: additional results; for Leukemia development: WBC; for Anemia after 5 months of treatment: 10 months of age
Protocol: (§1) • The ferroportin inhibitor compound Fpn127 was tested in NUP98-HOXD13 MDS mice. Fpn127was administered in drinking water containing 1% glucose at the concentration of 0.5 mg/ml.
• To study the rescuing effect of the ferroportin inhibitors according to the invention on the established iron overload and related toxicities in MDS, overall 8 5-month-old MDS mice were treated with the Example Compound Fpn127 and compared to 8 age-and sex-matched MDS untreated mice and wild-type control (1 experiment). Mice were treated from 5 months of age onwards. During the treatment period 3 untreated and 3 treated MDS mice were lost. […] Other 2 mice died without the opportunity to monitor parameters. No molecular analysis of 5 month-old treated mice was obtained as this cohort was kept for further observing and monitoring. To better follow individual blood parameter modulation two cohorts of mice whose treatment has been started at 3 and 5 months of age respectively, are analyzed longitudinally once a month along the treatment.
• To study the rescuing effect of the compound on the established iron overload and related toxicities in MDS, 5-month-old MDS mice were treated and compared to age-and sex-matched untreated MDS mice and wild-type controls. Mice were treated from 5 months of age onwards. […] The anemia of MDS mice tends to worsen from 5 months of age on.

NUP98-HOXD13 MDS mice [2] = assay: as above; assay type: in vivo; details: over a total of 10
NUP98-HOXD13 MDS mice [3] = assay: NUP98-HOXD13 MDS mouse model, preventive effect (treatment from 3 months of age); assay type: in vivo; details: for Immature Lin+ cKit+ cells in bone marrow: 3 months-long treatment; for Erythropoiesis / erythroid maturation in bone marrow and spleen: CD71 and CD44 loss on Ter119+ cells; for ROS formation in Ter119+ erythroid precursors: flow cytometry; for NTBI levels: serum, 0.5 mg/ml in drinking water
Protocol: as §1
• To study the protective effect of ferroportin inhibitors according to the invention on the progressive development of iron overload and related toxicities, overall 15 3-month-old MDS mice were treated with the Example Compound Fpn127 and compared to age-and sex-matched 15 untreated MDS mice and wild-type control (total of 3 repeated experiments). Mice were treated for 3 months-from 3 to 6 months of age. During the treatment period 2 untreated and 1 treated MDS mice were lost. • MDS mice of 3 months of age already show a certain degree of anemia, which supports to use the ferroportin inhibitors in the treatment starting from 3 months to improve erythropoiesis and anemia (FIG. 1). • About 60-70% of MDS mice show a mild to moderate anemia at 3 months of age. According to Hb levels, 3 month-old MDS mice can be divided into 3 groups presenting very mild, mild and moderate anemia (no/very mild anemia: Hb>13 g/dl; mild anemia: 10 g/dl<Hb<13 g/dl; moderate anemia: 8 g/dl<Hb<10 g/dl) (FIG. 2). Rarely MDS mice show severe anemia at 3 months age (severe anemia: Hb<8 g/dl). This reflects the situation of MDS patients whose 70-80% present anemia at diagnosis with different degree of severity. • In MDS mice treated for 3 months with Fpn127 from 3 to 6 months of age, the following parameters were monitored: • Serum iron levels and NTBI; • Liver iron accumulation; • Anemia and blood parameters; • Erythropoiesis—including RBC maturation, erythroid precursor apoptosis and ROS; • Hematopoietic stem cells—including apoptosis, ROS and DNA damage; • Bone marrow macrophages and myeloid-derived suppressor cells (not shown). • The FIGS. 3 to 15 show the results obtained as average of 3 independent experiments.
• Similar as in the MDS mouse model described above, the kinetic effects of VIT-2763, administered into the drinking water (0.5 mg/ml) was investigated in NUP98-HOXD13 model of MDS.
• To study the protective effect of the compound on the progressive development of iron overload and related toxicities, 3-month-old MDS mice were treated and compared to age-and sex-matched untreated MDS mice and wild-type control. Mice were treated with VIT-2763 from 3 months of age on to follow longitudinally blood parameters and survival (FIGS. 16-19), or for 3 months-from 3 to 6 months of age, for cellular and biochemical analyses (FIGS. 20-24).

[4] = test system: mouse model of β-thalassemia; details: cited from earlier work
transfused guinea pigs = details: cited from earlier work
[5] = treated from 5 months of age, listed as VIT
[6] = treated from 5 months of age, listed as VIT-2763
[7] = 3 to 6 months of age, listed as VIT
[8] = 3 to 6 months of age, listed as VIT-2763
[9] = Annexin V, MDS mice, 3 to 6 months of age
[10] = MDS mice, 3 to 6 months of age, listed as Example Compound No. 127
[11] = MDS mice, 0.5 mg/ml, 3 to 6 months of age
[12] = MDS mice, 0.5 mg/ml, 3 to 6 months of age, listed as Example Compound No. 127
[13] = bone marrow, MDS mice, 3 to 6 months of age
[14] = treated from 3 months of age on, from 5 through 7 months of age

In the case of `O=C(NCc1ncccc1F)c1coc(CCNCCc2nc3ccccc3[nH]2)n1` [Fpn127], the Leukemia development (NUP98-HOXD13 MDS mice [1]; [5]) is reported as “delayed leukemia development”, the Leukemia development (NUP98-HOXD13 MDS mice [1]; [6]) is reported as “delays leukemia evolution” and the “Anemia after 5 months of treatment” value (NUP98-HOXD13 MDS mice [1]; [5]) is reported as “improved anemia was observed”. The “Anemia after 5 months of treatment” value (NUP98-HOXD13 MDS mice [1]; [6]) was “improves anemia”, the “Median survival improvement compared to untreated mice” value (NUP98-HOXD13 MDS mice [1]; older MDS mice, treated from 5 months of age) was “about 16 days” and the “Hb of treated mice still alive at 15 months of age” value (NUP98-HOXD13 MDS mice [1]; stable blood parameters) was “about 9 g/dl”. For the same compound, the “Survival (Kaplan-Meier)” value (NUP98-HOXD13 MDS mice [1]; treated from 5 months of age) was “improves MDS mice survival”, the “Anemia after 3 months of treatment” value (NUP98-HOXD13 MDS mice [1]; treated from 5 months of age, 5 to 8 months of age) was “failed to observe improved anemia” and the “Anemia in older MDS mice” value (NUP98-HOXD13 MDS mice [1]; treated from 5 months of age, mice at 9 and 10 months of age, subset of mice) was “improves anemia; also recorded: partial improvement of anemia”. The “Progression to leukemia / leukemia-related death” value (NUP98-HOXD13 MDS mice [1]; treated from 5 months of age, mice that died) was “reduces leukemia-related death; also recorded: no apparent progression to leukemia”, the “Life span reached by MDS mice benefiting from treatment” value (NUP98-HOXD13 MDS mice [1]; untreated all dying within 400 days) was “up to 600 days” and the “Treated MDS mice still alive at 15 months of age” value (NUP98-HOXD13 MDS mice [2]) was “two”. The “Immature Lin+ cKit+ cells in bone marrow” value (NUP98-HOXD13 MDS mice [3]; [7]) was “reduced”, the “Immature Lin+ cKit+ cells in bone marrow” value (NUP98-HOXD13 MDS mice [3]; [8]) was “reduces” and the “Bone marrow CD11b+ myeloid cells (myeloid expansion)” value (NUP98-HOXD13 MDS mice [3]; [7]) was “reduced”. The “IL-1β production by bone marrow macrophages” value (NUP98-HOXD13 MDS mice [3]; [7]) was “reduced”, the “Macrophage number in bone marrow” value (NUP98-HOXD13 MDS mice [3]; [7]) was “improved macrophage number” and the “Monocytic and granulocytic myeloid-derived suppressor cells (MDSCs) in bone marrow” value (NUP98-HOXD13 MDS mice [3]; [7]) was “reduced”. The “TNFα production by bone marrow macrophages” value (NUP98-HOXD13 MDS mice [3]; [7]) was “reduced”, the “Bone marrow CD11b+ myeloid cells (myeloid expansion)” value (NUP98-HOXD13 MDS mice [3]; [8]) was “reduces myeloid expansion” and the “IL-1β production by bone marrow macrophages” value (NUP98-HOXD13 MDS mice [3]; [8]) was “limits”. For the same compound, the “Macrophage number in bone marrow” value (NUP98-HOXD13 MDS mice [3]; [8]) was “improves macrophage number”, the “Monocytic and granulocytic myeloid-derived suppressor cells (MDSCs) in bone marrow” value (NUP98-HOXD13 MDS mice [3]; [8]) was “reduces myeloid expansion” and the “TNFα production by bone marrow macrophages” value (NUP98-HOXD13 MDS mice [3]; [8]) was “limits”. For the same compound, the “Apoptosis in Ter119+ erythroid precursors” value (NUP98-HOXD13 MDS mice [3]; [9]) was “decreasing; also recorded: reduced”, the “Cell survival / apoptosis of LSK cells” value (NUP98-HOXD13 MDS mice [3]; [9]) was “lower apoptosis” and the “Apoptosis in Ter119+ erythroid precursors” value (NUP98-HOXD13 MDS mice [3]; Annexin V, MDS mice, 3 to 6 months of age, listed as Example Compound No. 127) was “prevent their apoptosis”. For the same compound, the “Erythropoiesis / erythroid maturation in bone marrow and spleen” value (NUP98-HOXD13 MDS mice [3]; MDS mice, 3 to 6 months of age) was “improves bone marrow erythroid maturation; also recorded: improves splenic erythroid maturation; also recorded: significantly improved”, the “Erythropoiesis / erythroid maturation in bone marrow and spleen” value (NUP98-HOXD13 MDS mice [3]; [10]) was “improve ineffective erythropoiesis” and the “Improvement of Hb levels” value (NUP98-HOXD13 MDS mice [3]; MDS mice treated from 3 months of age, after 2, 3 and 4 months of treatment) was “about 2 g/dl”. The “Anemia, longitudinal monitoring” value (NUP98-HOXD13 MDS mice [3]; MDS mice treated with 0.5 mg/ml from 3 months of age) was “improves anemia”, the Serum iron levels (NUP98-HOXD13 MDS mice [3]; MDS mice, 0.5 mg/ml in drinking water for 3 months, 3 to 6 months of age) was “reduces; also recorded: significantly decreased” and the Anemia (NUP98-HOXD13 MDS mice [3]; [11]) was “Improved anemia; also recorded: ameliorates anemia”. The HCT (NUP98-HOXD13 MDS mice [3]; [11]) was “significantly improved”, the Hb (NUP98-HOXD13 MDS mice [3]; [11]) was “significantly improved” and the Kidney iron content (NUP98-HOXD13 MDS mice [3]; [11]) was “significantly decreased”. For the same compound, the Liver iron content (NUP98-HOXD13 MDS mice [3]; [11]) was “prevents iron loading; also recorded: significantly decreased”, the MCH (NUP98-HOXD13 MDS mice [3]; [11]) was “remain unchanged” and the MCV (NUP98-HOXD13 MDS mice [3]; [11]) was “remain unchanged”. For the same compound, the Platelet count (NUP98-HOXD13 MDS mice [3]; [11]) was “remains unchanged”, the RBC (NUP98-HOXD13 MDS mice [3]; [11]) was “significantly improved” and the Reticulocytes (NUP98-HOXD13 MDS mice [3]; [11]) was “trend to improvement”. The Spleen iron (NUP98-HOXD13 MDS mice [3]; [11]) was “further elevated”, the “WBC count elevation / progression to leukemia” value (NUP98-HOXD13 MDS mice [3]; [11]) was “trend in reducing progression to leukemia; also recorded: only one mouse show a trend to elevated WBC count” and the Anemia (NUP98-HOXD13 MDS mice [3]; [12]) was “ameliorate anemia”. The Liver iron content (NUP98-HOXD13 MDS mice [3]; [12]) was “prevent”, the “Double strand breaks (γH2AX) in LSK cells” value (NUP98-HOXD13 MDS mice [3]; MDS mice, 3 to 6 months of age) was “reduced double strand breaks” and the “ROS production in LSK cells” value (NUP98-HOXD13 MDS mice [3]; MDS mice, 3 to 6 months of age) was “decreased ROS production”. The “Expression of CD71 on Ter119+ erythroid precursors” value (NUP98-HOXD13 MDS mice [3]; bone marrow and spleen, MDS mice, 3 to 6 months of age) was “significant reduction”, the “Overall status of hematopoietic LSK stem cells” value (NUP98-HOXD13 MDS mice [3]; [13]) was “improves the overall status; also recorded: overall improvement” and the “Pool of LSK cells” value (NUP98-HOXD13 MDS mice [3]; [13]) was “likely preserved”. The “ROS formation in Ter119+ erythroid precursors” value (NUP98-HOXD13 MDS mice [3]; MDS mice, 3 to 6 months of age) was “decreasing; also recorded: reduced”, the “ROS formation in Ter119+ erythroid precursors” value (NUP98-HOXD13 MDS mice [3]; [10]) was “limit” and the “Iron accumulation in LSK cells” value (NUP98-HOXD13 MDS mice [3]; labile iron, MDS mice, 3 to 6 months of age) was “reduced iron accumulation”. For the same compound, the “WBC increase in peripheral blood / leukemia evolution” value (NUP98-HOXD13 MDS mice [3]; longitudinal, treated from 3 months of age, listed as VIT-2763) was “delays leukemia evolution; also recorded: not observed or delayed”, the NTBI levels (NUP98-HOXD13 MDS mice [3]; MDS mice, 3 to 6 months of age) was “reduces; also recorded: significantly decreased” and the NTBI levels (NUP98-HOXD13 MDS mice [3]; [10]) was “prevent NTBI formation”. For the same compound, the “Survival (Kaplan-Meier)” value (NUP98-HOXD13 MDS mice [3]; treated from 3 months of age) was “improves MDS mice survival”, the “HCT, longitudinal monitoring” value (NUP98-HOXD13 MDS mice [3]; [14]) was “significantly improved” and the “Hb, longitudinal monitoring” value (NUP98-HOXD13 MDS mice [3]; [14]) was “significantly improved”. For the same compound, the “RBC, longitudinal monitoring” value (NUP98-HOXD13 MDS mice [3]; [14]) was “significantly improved”, the Anemia [4] was “ameliorated anemia” and the Liver iron loading [4] was “prevents liver iron loading”. The Ineffective erythropoiesis ([4]; oral) was “improves ineffective erythropoiesis”.

In the case of `O=C(NCc1ncccc1F)c1csc(CCNCc2nc3ccccc3[nH]2)n1` [VIT-2653], the “Hb levels following exchange transfusion” value (transfused guinea pigs; guinea pigs, intravenous) is listed as “significantly improved”, the “NTBI levels following exchange transfusion” value (transfused guinea pigs; guinea pigs, intravenous) is listed as “significantly improved” and the “Total iron in kidneys following transfusion” value (transfused guinea pigs; guinea pigs, intravenous) is listed as “can be reduced”. For the same compound, the “Occurrence of changes in plasma creatinine >0.3 mg/dL (early acute kidney injury)” value (transfused guinea pigs; transfused guinea pigs) was “significantly reduced”.
